Reference: patent US8008484B2 (priority 2004, dated 2011)

System: Cucumber (variety: SAGAMI HANPAKU)
Test: Phytotoxicity studied in the Botrytis cinerea foliage test
Format: in vivo
Conditions: cucumber seedlings, foliar spray, 500 ppm
Protocol: Cucumber (variety: SAGAMI HANPAKU) was cultivated in a plastic pot of 4 cm diameter. A diluted solution of an active compound of the prescribed concentration, prepared in a similar manner as in the above-mentioned Test Example 1, was sprayed to seedlings reached to cotyledon in an amount of 6 ml per 2 pots. One day after the spraying, an inoculant, prepared by mixing a suspension of artificially cultured spores of Botrytis cinerea and agar gel (2×10^4 spores/ml gel), was placed on cotyledons to inoculate and infected in a moisture box kept at 20° C. Four days after the inoculation, the contraction rate per cotyledon was classified and evaluated according to the following standard to obtain the controlling value (%). Phytotoxicity was also studied at the same time. This test is an average of the results of 2 sections 4 cotyledons.

Row | Structure (SMILES) | Phytotoxicity
1 | COc1cc(OC)nc(Cc2cccc(F)c2NS(=O)(=O)C(Cl)Cl)n1 [Compound 12-136] | No phytotoxicity was observed
2 | COc1nc(OC)nc(C(O)c2cccc(F)c2NS(=O)(=O)C(F)F)n1 (stereo not shown) [Compound 18-51] | No phytotoxicity was observed
3 | COc1cc(OC)nc(C(O)c2cccc(F)c2NS(=O)(=O)CCl)n1 (stereo not shown) [Compound 18-6] | No phytotoxicity was observed
4 | COc1cc(OC)nc(C(O)c2ccc(F)cc2NS(=O)(=O)C(F)F)n1 (racemic) [Compound 4-186] | No phytotoxicity was observed
5 | COc1cc(OC)nc(C(O)c2cc(C)cc(F)c2NS(=O)(=O)C(F)F)n1 (racemic) [Compound 4-107] | No phytotoxicity was observed
6 | COc1cc(OC)nc(C(O)c2ccccc2NS(=O)(=O)C(F)(F)F)n1 (stereo not shown) [Compound 18-20] | No phytotoxicity was observed
7 | COc1cc(OC)nc(C(=O)c2cccc(F)c2NS(=O)(=O)C(F)F)n1 [Compound 9-25] | No phytotoxicity was observed
8 | COc1cc(OC)nc(Cc2cccc(Cl)c2NS(=O)(=O)CC(F)(F)F)n1 [Compound 14-22] | No phytotoxicity was observed
9 | COc1cc(OC)nc(C(O)c2cccc(F)c2NS(=O)(=O)C(F)F)n1 (stereo not shown) [Compound 18-25] | No phytotoxicity was observed
10 | COc1cc(OC)nc(Cc2c(Cl)ccc(Cl)c2NS(=O)(=O)C(F)F)n1 [Compound 2-138] | No phytotoxicity was observed
11 | COc1cc(OC)nc(C(SC)c2cccc(F)c2NS(=O)(=O)C(F)F)n1 (stereo not shown) [Compound 1-14] | No phytotoxicity was observed
12 | COc1cc(OC)nc(Cc2ccc(F)c(C)c2NS(=O)(=O)CC(F)(F)F)n1 [Compound 13-8] | No phytotoxicity was observed
13 | COc1nc(OC)nc(C(=O)c2ccccc2NS(=O)(=O)C(F)F)n1 [Compound 9-48] | No phytotoxicity was observed
14 | COCc1c(F)ccc(Cc2nc(OC)cc(OC)n2)c1NS(=O)(=O)C(F)F [Compound 14-40] | No phytotoxicity was observed
15 | COc1cc(OC)nc(C(=O)c2cccc(Cl)c2NS(=O)(=O)C(F)F)n1 [Compound 9-26] | No phytotoxicity was observed
16 | COc1cc(OC)nc(Cc2cccc(Cl)c2NS(=O)(=O)C(F)(F)F)n1 [Compound 14-20] | No phytotoxicity was observed

Row | Structure (SMILES) | Phytotoxicity
17 | COc1cc(OC)nc(Cc2ccc(F)c(F)c2NS(=O)(=O)C(F)F)n1 [Compound 2-110] | No phytotoxicity was observed
18 | COc1cc(OC)nc(Cc2cc(C)cc(C)c2NS(=O)(=O)C(F)F)n1 [Compound 2-192] | No phytotoxicity was observed
19 | COc1cc(OC)nc(C(O)c2ccccc2NS(=O)(=O)C(F)F)n1 (stereo not shown) [Compound 18-24] | No phytotoxicity was observed
20 | COc1cc(OC)nc(Cc2ccccc2NS(=O)(=O)C(F)F)n1 [Compound 2-1] | No phytotoxicity was observed
21 | COc1cc(OC)nc(Cc2cccc(Cl)c2NS(=O)(=O)C(F)F)n1 [Compound 14-35] | No phytotoxicity was observed
22 | COc1cc(OC)nc(Cc2cccc(C)c2NS(=O)(=O)C(F)F)n1 [Compound 14-37] | No phytotoxicity was observed
23 | COc1cc(OC)nc(Cc2cccc(F)c2NS(=O)(=O)CCl)n1 [Compound 14-8] | No phytotoxicity was observed
24 | COc1cc(OC)nc(C(O)c2cc(C)cc(Cl)c2NS(=O)(=O)C(F)F)n1 (racemic) [Compound 4-130] | No phytotoxicity was observed
25 | COc1cc(OC)nc(C(O)c2cccc(F)c2NS(=O)(=O)CC(F)(F)F)n1 (stereo not shown) [Compound 18-10] | No phytotoxicity was observed
26 | COc1cc(OC)nc(Cc2ccccc2NS(=O)(=O)C(F)(F)F)n1 [Compound 14-2] | No phytotoxicity was observed
27 | COc1cc(OC)nc(Cc2cccc(Cl)c2N(C(=O)C2CC2)S(=O)(=O)C(F)F)n1 [Compound 2-191] | No phytotoxicity was observed
28 | COc1cc(OC)nc(C(O)c2ccc(C)c(C)c2NS(=O)(=O)C(F)F)n1 (racemic) [Compound 4-187] | No phytotoxicity was observed
29 | COc1cc(OC)nc(Cc2cccc(Cl)c2N(C(C)=O)S(=O)(=O)C(F)F)n1 [Compound 2-31] | No phytotoxicity was observed
30 | COc1cc(OC)nc(Cc2cccc(F)c2N(C(C)=O)S(=O)(=O)C(F)F)n1 [Compound 2-18] | No phytotoxicity was observed
31 | COc1cc(OC)nc(C(O)c2cccc(Cl)c2NS(=O)(=O)C(F)F)n1 (stereo not shown) [Compound 18-26] | No phytotoxicity was observed

System: Paddy rice (variety: KOSIHIKARI)
Test: not given
Conditions: foliar spray, 500 ppm

Row | Structure (SMILES) | Phytotoxicity
32 | COc1cc(OC)nc(Cc2ccc(F)c(C)c2NS(=O)(=O)C(F)F)n1 [Compound 2-193] | No phytotoxicity was observed
33 | COc1cc(OC)nc(Cc2cc(F)ccc2NS(=O)(=O)C(F)F)n1 [Compound 2-62] | No phytotoxicity was observed
34 | COC(=O)N(c1c(Cl)cccc1Cc1nc(OC)cc(OC)n1)S(=O)(=O)C(F)F [Compound 2-32] | No phytotoxicity was observed
35 | COc1cc(OC)nc(C(=O)c2cccc(Cl)c2N(C(C)=O)S(=O)(=O)C(F)F)n1 [Compound 3-22] | No phytotoxicity was observed
36 | COc1cc(OC)nc(C(O)c2cccc(F)c2NS(=O)(=O)CCl)n1 (stereo not shown) [Compound 18-6] | No phytotoxicity was observed
37 | COc1cc(OC)nc(Cc2cc(C)c(F)cc2NS(=O)(=O)C(F)F)n1 [Compound 2-190] | No phytotoxicity was observed
38 | COc1cc(OC)nc(C(O)c2ccc(F)c(C)c2NS(=O)(=O)C(F)F)n1 (racemic) [Compound 4-184] | No phytotoxicity was observed
39 | COc1cc(OC)nc(Cc2cc(F)c(Cl)c(F)c2NS(=O)(=O)C(F)F)n1 [Compound 2-125] | No phytotoxicity was observed
40 | COc1cc(OC)nc(C(O)c2ccc(F)c(C)c2NS(=O)(=O)CC(F)(F)F)n1 (racemic) [Compound 12-137] | No phytotoxicity was observed
41 | COc1cc(OC)nc(C(O)c2ccccc2NS(=O)(=O)C(F)F)n1 (stereo not shown) [Compound 18-24] | No phytotoxicity was observed
42 | COc1cc(OC)nc(C(Cl)c2cccc(F)c2NS(=O)(=O)C(F)(F)F)n1 (stereo not shown) [Compound 12-127] | No phytotoxicity was observed
43 | COc1cc(OC)nc(Cc2ccc(F)cc2NS(=O)(=O)C(F)F)n1 [Compound 2-61] | No phytotoxicity was observed
44 | COc1cc(OC)nc(Cc2cccc(C)c2NS(=O)(=O)C(F)F)n1 [Compound 14-37] | No phytotoxicity was observed
45 | COc1cc(OC)nc(C(O)c2cc(C)cc(F)c2NS(=O)(=O)CC(F)(F)F)n1 (racemic) [Compound 12-131] | No phytotoxicity was observed
46 | COc1cc(OC)nc(C(O)c2cc(C)cc(Cl)c2NS(=O)(=O)C(F)F)n1 (racemic) [Compound 4-130] | No phytotoxicity was observed
47 | COc1cc(OC)nc(C(O)c2cccc(F)c2NS(=O)(=O)C(F)(F)F)n1 (stereo not shown) [Compound 18-21] | No phytotoxicity was observed
48 | COc1cc(OC)nc(C(O)c2cccc(F)c2NS(=O)(=O)CC(F)(F)F)n1 (stereo not shown) [Compound 18-10] | No phytotoxicity was observed
49 | COc1cc(OC)nc(Cc2cccc(Cl)c2N(C(=O)C2CC2)S(=O)(=O)C(F)F)n1 [Compound 2-191] | No phytotoxicity was observed
50 | COc1cc(OC)nc(Cc2cccc(Cl)c2N(C(C)=O)S(=O)(=O)C(F)F)n1 [Compound 2-31] | No phytotoxicity was observed
51 | COc1nc(OC)nc(C(O)c2cccc(C)c2NS(=O)(=O)C(F)F)n1 (stereo not shown) [Compound 18-53] | No phytotoxicity was observed
52 | COc1cc(OC)nc(C(O)c2cccc(F)c2NS(C)(=O)=O)n1 (stereo not shown) [Compound 18-2] | No phytotoxicity was observed
